From publication PMC10202811 (Nature Medicine, 2023)
Several values for one entry are separate records, joined by “and”; a condition that tells them apart may be missing. Identical values can stand only once. Entries after “also recorded” stand apart in the source; their conditions may differ. Marks after values point to notes of the source that are not given here.

Assay: Toxicity assessment (CTCAE version 4): treatment-related AEs, DLTs, dose reductions, RP2D; phase 1 NANT2015-02
Settings: for Toxicity Maximum Grade per patient: Sinus tachycardia / Toxicity Maximum Grade per patient: Neutrophil count decreased: CTCAE grade
Procedure: Five DLs (45, 60, 75, 95 and 115 mg/m^2/dose) were assessed in A1, using a 3 + 3 design. […] Myeloid growth factor was given 24 hours after the completion of topotecan/cyclophosphamide on B2, according to institutional standards. Instructions and hands-on training for a tablet dispersion formulation, validated by Pfizer, was provided to families of patients who could not swallow tablets.
Initially, this was the only DL planned, but, with a subsequent amendment, a second DL was added to cohort A2 (150 mg). […] Finally, because of the nature of the patients in cohort A2 (which had only two planned DLs), an expansion of up to six additional patients was planned for the highest DL tested with zero or one DLT in six DLT-evaluable patients. Accrual could continue in the expansion cohort as long as none, or at most one, of the patients experienced DLT in the DLT observation period; if two or more patients experienced DLT in the DLT observation period, this would lead to a discussion of the suitability of this dose. The probability of observing […] with DLT, out of six patients, is 0.11, 0.22, 0.47, 0.68 and 0.77 when the true probability of DLT is 0.10, 0.15, 0.25, 0.35 and 0.40, respectfully.
Patients who were not evaluable for DLT were replaced for dose-escalation purposes. […] The MTD was defined as the highest DL tested at which zero of six or one of six patients experience DLT. After determination of the MTD and review of all toxicities, and provided that other safety considerations were acceptable, the MTD was labeled the RP2D.
Toxicity was graded according to CTCAE version 4. DLT definitions included only toxicities deemed at least possibly related to therapy. For A1 and A2, hematologic DLT was defined as grade 4 thrombocytopenia or grade 4 neutropenia >7-day duration or a delay in the start of subsequent course by more than 14 days due to ongoing thrombocytopenia or neutropenia, in the absence of bone marrow disease progression seen on clinically indicated bone marrow biopsy (if performed). For cohort B2, hematological DLT is defined as a delay in the start of subsequent course by more than 14 days due to ongoing thrombocytopenia or neutropenia, in the absence of bone marrow disease progression seen on clinically indicated bone marrow biopsy after the first dose reduction of cyclophosphamide and topotecan. Non-hematologic DLT was defined as any non-hematologic toxicity that delayed the start of a subsequent cycle by more than 14 days or any grade ≥3 toxicity, with the exception of the following grade 3 toxicities: nausea, vomiting, anorexia or dehydration resolving to grade ≤2 within 72 hours; increase in hepatic transaminase or electrolyte abnormality resolving eligibility levels within 7 days; diarrhea persisting for less than 72 hours; fever; infection; febrile neutropenia; high cholesterol or triglycerides if responsive (to ≤grade 2) with statin treatment; weight gain; and hyperglycemia if responsive (to <grade 2) with dietary modification.

[1] = Cohort A1, neurotoxicity, one line per patient (PID)
[2] = Cohort A1, one line per patient (PID)

In the case of `C[C@H]1Oc2cc(cnc2N)-c2c(nn(C)c2C#N)CN(C)C(=O)c2ccc(F)cc21` [Lorlatinib, (10R)-7-amino-12-fluoro-2,10,16-trimethyl-15-oxo-10,15,16,17-tetrahydro-2H-8,4-(metheno)pyrazolo[4,3-h][2,5,11]-benzoxadiazacyclotetradecine-3-carbonitrile], the “patients developing grade 2 CNS effects” value (<18 years (cohorts A1 and B2), two of 33) is reported as 6%, the “patients requiring a dose reduction” value (<18 years, lorlatinib monotherapy) is reported as 9% and the “CNS DLT (CTCAE V4)” value (A1 (< 18 yrs), DL 5 (115 mg/m^2)) is reported as “Grade 2 hallucination/insomnia”. The DLT (A1, DL5 (115 mg/m^2), course 1) was “YES”, the “Toxicity reason for Dose reduction” value (A1, DL5 (115 mg/m^2), course 1) was “Grade 3 Diarrhea (lactose intolerance)” and the DLT (A1, DL5 (115 mg/m^2), course 3) was “Delayed DLT”. For the same compound, the “Toxicity reason for Dose reduction” value (A1, DL5 (115 mg/m^2), course 3) was “Grade 2 Hallucination/insomnia^1”, the “CNS DLT (CTCAE V4)” value (A2 (≥ 18 yrs), 100 mg) was “Grade 2 memory impairment” and the “CNS DLT (CTCAE V4)” value (A2 (≥ 18 yrs), 150 mg) was “Grade 2-4 hallucinations, delusions, suicidal ideations; also recorded: Grade 3 agitation^g; also recorded: Grade 4 Mania”. The DLT (A2, 100 mg, course 3) was “Delayed DLT^2”, the “Toxicity reason for Dose reduction” value (A2, 100 mg, course 3) was “Grade 3 Hyperglycemia” and the DLT (A2, 100 mg, course 7) was “Delayed DLT”. For the same compound, the “Toxicity reason for Dose reduction” value (A2, 100 mg, course 7) was “Grade 2 Memory impairment”, the DLT (A2, 150 mg, course 2) was “YES” and the “Toxicity reason for Dose reduction” value (A2, 150 mg, course 2) was “Grade 2-4 Delusions, psychosis, suicide attempt^3”. The DLT (A2, 150 mg, course 2 (second patient)) was “YES”, the “Toxicity reason for Dose reduction” value (A2, 150 mg, course 3) was “Grade 2 Lower extremity edema^5” and the DLT (A2, 150 mg, course 4) was “Delayed DLT”. The “Toxicity reason for Dose reduction” value (A2, 150 mg, course 4) was “Grade 2 Peripheral neuropathy/edema”, the “Toxicity reason for Dose reduction” value (A2, 150 mg, course 5) was “Grade 2 Peripheral neuropathy^6” and the “CNS DLT (CTCAE V4)” value (B2 (< 18yrs), DL 5 (115 mg/m^2)) was “Grade 2 anxiety, depression, somnolence, hypersomnia”. The DLT (B2, DL5 (115 mg/m^2), course 3) was “Delayed DLT”, the “Toxicity reason for Dose reduction” value (B2, DL5 (115 mg/m^2), course 3) was “Grade 2 anxiety, depression, somnolence, hypersomnia” and the “Patients with DLT in course 1” value (Cohort A1, DL1 (45 mg/m^2)) was 0. For the same compound, the “Patients with DLT in course 2” value (Cohort A1, DL1 (45 mg/m^2)) was 0, the “Patients with DLT in other courses” value (Cohort A1, DL1 (45 mg/m^2)) was 0 and the “Patients with DLT in course 1” value (Cohort A1, DL2 (60 mg/m^2)) was 0. The “Patients with DLT in course 2” value (Cohort A1, DL2 (60 mg/m^2)) was 0, the “Patients with DLT in other courses” value (Cohort A1, DL2 (60 mg/m^2)) was 0 and the “Patients with DLT in course 1” value (Cohort A1, DL3 (75 mg/m^2)) was 0. For the same compound, the “Patients with DLT in course 2” value (Cohort A1, DL3 (75 mg/m^2)) was 0, the “Patients with DLT in other courses” value (Cohort A1, DL3 (75 mg/m^2)) was 0 and the “Patients with DLT in course 1” value (Cohort A1, DL4 (95 mg/m^2)) was 0. The “Patients with DLT in course 2” value (Cohort A1, DL4 (95 mg/m^2)) was 0, the “Patients with DLT in other courses” value (Cohort A1, DL4 (95 mg/m^2)) was 0 and the “Patients with DLT in course 1” value (Cohort A1, DL5 (115 mg/m^2)) was 1^b. The “Patients with DLT in course 2” value (Cohort A1, DL5 (115 mg/m^2)) was 0, the “Patients with DLT in other courses” value (Cohort A1, DL5 (115 mg/m^2)) was 1^b and the “Toxicity Maximum Grade per patient: Sinus tachycardia” value (Cohort A1, patient PID 9) was 2. For the same compound, the “Toxicity Maximum Grade per patient: Sinus tachycardia” value (Cohort A1, patient PID 17) was 1, the “Toxicity Maximum Grade per patient: Sinus tachycardia” value (Cohort A1, patient PID 18) was 1 and the “Toxicity Maximum Grade per patient: Neutrophil count decreased” value (Cohort A1, patient PID 21) was 2. The “Toxicity Maximum Grade per patient: Neutrophil count decreased” value (Cohort A1, patient PID 31) was 3, the “Amnesia (CNS effect)” value (Cohort A1, grade 1-4 in c1-c4) was 0 (0) and the “Confusion (CNS effect)” value (Cohort A1, grade 1-4 in c1-c4) was 0 (0). The “Delirium (CNS effect)” value (Cohort A1, grade 1-4 in c1-c4) was 0 (0), the “Delusions (CNS effect)” value (Cohort A1, grade 1-4 in c1-c4) was 0 (0) and the “Dysarthria (CNS effect)” value (Cohort A1, grade 1-4 in c1-c4) was 0 (0). The “Euphoria (CNS effect)” value (Cohort A1, grade 1-4 in c1-c4) was 0 (0), the “Hypersomnia (CNS effect)” value (Cohort A1, grade 1-4 in c1-c4) was 0 (0) and the “Mania (CNS effect)” value (Cohort A1, grade 1-4 in c1-c4) was 0 (0). The “Paresthesia (CNS effect)” value (Cohort A1, grade 1-4 in c1-c4) was 0 (0), the “Restlessness (CNS effect)” value (Cohort A1, grade 1-4 in c1-c4) was 0 (0) and the “Somnolence (CNS effect)” value (Cohort A1, grade 1-4 in c1-c4) was 0 (0). The “Stuttering (CNS effect)” value (Cohort A1, grade 1-4 in c1-c4) was 0 (0), the “Suicidal ideation (CNS effect)” value (Cohort A1, grade 1-4 in c1-c4) was 0 (0) and the “Agitation: Toxicity Maximum Grade per patient” value [1] was 1. The “Anxiety: Toxicity Maximum Grade per patient” value [1] was 1, the “Cognitive disturbance: Toxicity Maximum Grade per patient” value [1] was 1 and the “Concentration impairment: Toxicity Maximum Grade per patient” value [1] was 1. The “Depression: Toxicity Maximum Grade per patient” value [1] was 1, the “Hallucinations: Toxicity Maximum Grade per patient” value [1] was 2 and the “Headache: Toxicity Maximum Grade per patient” value [1] was 1. The “Memory impairment: Toxicity Maximum Grade per patient” value [1] was 1, the “Alanine aminotransferase increased: Toxicity Maximum Grade per patient” value [2] was 1 and 2 and the “Alkaline phosphatase increased: Toxicity Maximum Grade per patient” value [2] was 1 and 2. For the same compound, the “Anemia: Toxicity Maximum Grade per patient” value [2] was 2 and 1 and 3, the “Aspartate aminotransferase increased: Toxicity Maximum Grade per patient” value [2] was 1 and 3 and 2 and the “Cholesterol high: Toxicity Maximum Grade per patient” value [2] was 2 and 1 and 3. For the same compound, the “Creatinine increased: Toxicity Maximum Grade per patient” value [2] was 1, the “Diarrhea: Toxicity Maximum Grade per patient” value [2] was 1 and 3 and the “Edema limbs: Toxicity Maximum Grade per patient” value [2] was 1. The “Electrocardiogram QT corrected interval prolonged: Toxicity Maximum Grade per patient” value [2] was 1, the “Fatigue: Toxicity Maximum Grade per patient” value [2] was 1 and the “Flatulence: Toxicity Maximum Grade per patient” value [2] was 2 and 1. The “Gastroesophageal reflux disease: Toxicity Maximum Grade per patient” value [2] was 2, the “Hyperglycemia: Toxicity Maximum Grade per patient” value [2] was 1 and 3 and the “Hypertriglyceridemia: Toxicity Maximum Grade per patient” value [2] was 1 and 2 and 3. For the same compound, the “INCREASED APPETITE: Toxicity Maximum Grade per patient” value [2] was 1, the “Irritability: Toxicity Maximum Grade per patient” value [2] was 1 and the “Lymphocyte count decreased: Toxicity Maximum Grade per patient” value [2] was 1 and 3.
